According to patent US7138361B2, “Herbicidal heterocycles” (E. I. du Pont de Nemours and Company, priority 2000, dated 2006):

Columns and labels:
Assay type in all cases: in vivo
[1] = system: barnyardgrass (Echinochloa crus-galli); experiment: Test C flooded paddy test; settings: for Barnyardgrass plant response rating: Flooded Paddy, scale 0 to 100, 0 no effect, 100 complete control; for Plant response rating, Barnyardgrass: flooded paddy test, scale 0 to 100 (0 no effect, 100 complete control)
Procedure, shortened: (§1)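 Visual injury score, 0 (no effect) to 100 (complete control), relative to controls. Paddy plants treated at 2-leaf stage; greenhouse hold 12–14 d before rating.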

[2] = system: smallflower flatsedge (Cyperus difformis); experiment: Test C flooded paddy test; settings: for Flatsedge plant response rating: Flooded Paddy, scale 0 to 100, 0 no effect, 100 complete control; for Plant response rating, Flatsedge: flooded paddy test, scale 0 to 100 (0 no effect, 100 complete control)
Procedure, shortened: as §1

[3] = system: duck salad (Heteranthera limosa); experiment: Test C flooded paddy test; settings: for Ducksalad plant response rating: Flooded Paddy, scale 0 to 100, 0 no effect, 100 complete control; for Plant response rating, Ducksalad: flooded paddy test, scale 0 to 100 (0 no effect, 100 complete control)
Procedure, shortened: as §1

Sunflower [4] = experiment: Test C preemergence; settings: Rate 500 g/ha, visual evaluation after 12 to 14 days
[5] = system: Surinam grass (Brachiaria decumbens); experiment: Test C preemergence
Procedure, shortened: (§2)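 Pre- and postemergence treatments used a non-phytotoxic solvent/surfactant formulation; post-treated plants measured 2 to 18 cm. Greenhouse hold 12–14 d; % control estimated visually relative to controls.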

soybean (Glycine max) = experiment: Test C preemergence
Procedure, shortened: as §2

[6] = system: goosegrass (Eleusine indica); experiment: Test C preemergence
Procedure, shortened: as §2

[7] = system: giant foxtail (Setaria faberii); experiment: Test C preemergence
Procedure, shortened: as §2

[8] = system: velvetleaf (Abutilon theophrasti); experiment: Test C preemergence
Procedure, shortened: as §2

[9] = system: woolly cupgrass (Eriochloa villosa); experiment: Test C preemergence
Procedure, shortened: as §2

[10] = system: johnsongrass (Sorghum halepense); experiment: Test C preemergence
Procedure, shortened: as §2

[11] = system: yellow nutsedge (Cyperus esculentus); experiment: Test C preemergence
Procedure, shortened: as §2

[12] = system: cocklebur (Xanthium strumarium); experiment: Test C preemergence
Procedure, shortened: as §2

Sunflower [13] = experiment: Test C preemergence; settings: Rate 125 g/ha; scale 0 to 100, 0 no effect, 100 complete control
[14] = system: crabgrass (Digitaria sanguinalis); experiment: Test C preemergence
Procedure, shortened: as §2

[15] = system: morningglory (Ipomoea hederacea); experiment: Test C preemergence
Procedure, shortened: as §2

Nightshade = experiment: Test C preemergence
[16] = system: bermudagrass (Cynodon dactylon); experiment: Test C preemergence
Procedure, shortened: as §2

[17] = system: pigweed (Amaranthus retroflexus); experiment: Test C preemergence
Procedure, shortened: as §2

kochia (Kochia scoparia) = experiment: Test C preemergence
Procedure, shortened: as §2

[18] = system: lambsquarters (Chenopodium album); experiment: Test C preemergence
Procedure, shortened: as §2

corn (Zea mays) = experiment: Test C preemergence
Procedure, shortened: as §2

[19] = Rate 125 g/ha, scale 0 to 100, 0 no effect, 100 complete control
[20] = preemergence, Rate 62 g/ha, scale 0 to 100
[21] = preemergence, Rate 500 g/ha, visual evaluation after 12 to 14 days
[22] = preemergence, Rate 250 g/ha, scale 0 to 100, 0 no effect, 100 complete control

## CCC(C)c1ccn(C2CCN(c3cccc(OC)c3)C2=O)n1 (centres unmarked) [Compound 95]
[1]; Rate 250 g/ha
  Barnyardgrass plant response rating: 100
[1]; Rate 500 g/ha
  Barnyardgrass plant response rating: 100
[1]; Rate 62 g/ha
  Plant response rating, Barnyardgrass: 70
[1]; Rate 125 g/ha
  Plant response rating, Barnyardgrass: 70
[2]; Rate 250 g/ha
  Flatsedge plant response rating: 100
[2]; Rate 500 g/ha
  Flatsedge plant response rating: 100
[2]; Rate 62 g/ha
  Plant response rating, Flatsedge: 90
[2]; Rate 125 g/ha
  Plant response rating, Flatsedge: 100
[3]; Rate 250 g/ha
  Ducksalad plant response rating: 100
[3]; Rate 500 g/ha
  Ducksalad plant response rating: 100
[3]; Rate 62 g/ha
  Plant response rating, Ducksalad: 70
[3]; Rate 125 g/ha
  Plant response rating, Ducksalad: 90
Sunflower [4]
  Plant response rating (0 to 100), Sunflower: 10
[5]; [19]
  Plant response rating, Surinam grass: 40
[5]; [20]
  Plant response rating, Surinam grass: 40
[5]; [21]
  Plant response rating (0 to 100), Surinam grass: 100
[5]; [22]
  Plant response rating, Surinam grass: 50
Soybean (Glycine max); [19]
  Plant response rating, Soybean: 0
Soybean (Glycine max); [20]
  Plant response rating, Soybean: 0
Soybean (Glycine max); [21]
  Plant response rating (0 to 100), Soybean: 30
Soybean (Glycine max); [22]
  Plant response rating, Soybean: 0
[6]; [19]
  Plant response rating, Goosegrass: 100
[6]; [20]
  Plant response rating, Goosegrass: 100
[6]; [21]
  Plant response rating (0 to 100), Goosegrass: 100
[6]; [22]
  Plant response rating, Goosegrass: 100
[7]; [19]
  Plant response rating, Foxtail, Giant: 0
[7]; [20]
  Plant response rating, Foxtail, Giant: 0
[7]; [21]
  Plant response rating (0 to 100), Foxtail, Giant: 100
[7]; [22]
  Plant response rating, Foxtail, Giant: 0
[8]; [19]
  Plant response rating, Velvetleaf: 0
[8]; [20]
  Plant response rating, Velvetleaf: 0
[8]; [21]
  Plant response rating (0 to 100), Velvetleaf: 0
[8]; [22]
  Plant response rating, Velvetleaf: 0
[9]; [19]
  Plant response rating, Cupgrass, Woolly: 100
[9]; [20]
  Plant response rating, Cupgrass, Woolly: 50
[9]; [21]
  Plant response rating (0 to 100), Cupgrass, Woolly: 100
[9]; [22]
  Plant response rating, Cupgrass, Woolly: 100
[10]; [19]
  Plant response rating, Johnsongrass: 30
[10]; [20]
  Plant response rating, Johnsongrass: 30
[10]; [21]
  Plant response rating (0 to 100), Johnsongrass: 90
[10]; [22]
  Plant response rating, Johnsongrass: 60
[11]; [19]
  Plant response rating, Nutsedge: 0
[11]; [20]
  Plant response rating, Nutsedge: 0
[11]; [21]
  Plant response rating (0 to 100), Nutsedge: 70
[12]; [19]
  Plant response rating, Cocklebur: 0
[12]; [20]
  Plant response rating, Cocklebur: 0
[12]; [21]
  Plant response rating (0 to 100), Cocklebur: 0
[12]; [22]
  Plant response rating, Cocklebur: 0
Sunflower [13]
  Plant response rating, Sunflower: 0
[14]; [19]
  Plant response rating, Crabgrass: 100
[14]; [20]
  Plant response rating, Crabgrass: 100
[14]; [21]
  Plant response rating (0 to 100), Crabgrass: 100
[14]; [22]
  Plant response rating, Crabgrass: 100
[15]; [19]
  Plant response rating, Morningglory: 0
[15]; [20]
  Plant response rating, Morningglory: 0
[15]; [21]
  Plant response rating (0 to 100), Morningglory: 0
[15]; [22]
  Plant response rating, Morningglory: 0
Nightshade; Rate 62 g/ha, scale 0 to 100
  Plant response rating, Nightshade: 0
Nightshade; [19]
  Plant response rating, Nightshade: 0
Nightshade; Rate 250 g/ha, scale 0 to 100, 0 no effect, 100 complete control
  Plant response rating, Nightshade: 0
[16]; [19]
  Plant response rating, Bermudagrass: 100
[16]; [20]
  Plant response rating, Bermudagrass: 100
[16]; [21]
  Plant response rating (0 to 100 where 0 is no effect and 100 is complete control), Bermudagrass: 100
[16]; [22]
  Plant response rating, Bermudagrass: 100
[17]; [19]
  Plant response rating, Pigweed: 0
[17]; [20]
  Plant response rating, Pigweed: 100
[17]; [21]
  Plant response rating (0 to 100), Pigweed: 60
[17]; [22]
  Plant response rating, Pigweed: 0
Kochia (Kochia scoparia); [19]
  Plant response rating, Kochia: 100
Kochia (Kochia scoparia); [20]
  Plant response rating, Kochia: 100
Kochia (Kochia scoparia); [21]
  Plant response rating (0 to 100), Kochia: 100
Kochia (Kochia scoparia); [22]
  Plant response rating, Kochia: 100
[18]; [19]
  Plant response rating, Lambsquarters: 100
[18]; [20]
  Plant response rating, Lambsquarters: 100
[18]; [21]
  Plant response rating (0 to 100), Lambsquarters: 100
[18]; [22]
  Plant response rating, Lambsquarters: 100
Corn (Zea mays); [19]
  Plant response rating, Corn: 10
Corn (Zea mays); [20]
  Plant response rating, Corn: 10
Corn (Zea mays); [21]
  Plant response rating (0 to 100), Corn: 40
Corn (Zea mays); [22]
  Plant response rating, Corn: 40
